Source: PMC8619673 (Cells, 2021)

Tests used:
AKT = assay: Western blot, p-AKT; format: cell-based, Human; settings: 5 µM; induced untreated 81%
Protocol: (§1) Cellular proteins were prepared using a lysis buffer containing NaCl (150 mM), ethylene diamine tetraacetic acid (EDTA, 1 mM, pH8.0), Tris-HCl (50 mM, pH8.0), ethylene glycol tetraacetic acid (EGTA, 1 mM, pH8.0), sodium dodecyl sulfate (SDS, 0.1%), sodium deoxycholate (SD, 0.5%), Triton X-100 (1%), and protease (Sigma-Aldrich), and phosphatase (Abcam, Cambridge, MA, USA) inhibitor cocktails. After quantitation by protein assay kit (Bio-Rad, Hercules, CA, USA), 20 µg proteins were separated by SDS-polyacrylamide (10%) gel electrophoresis and transferred to polyvinylidene difluoride (PVDF) membranes (Sigma-Aldrich) using a Mini Trans-Blot cell (Bio-Rad). After blocking, the membrane was probed with anti-TRKB, anti-p-TRKB (Y516), anti-p-TRKB (Y817) (1:500; Cell Signaling, Danvers, MA, USA), anti-ERK, anti-p-ERK (T202/Y204) (1:1000; Cell Signaling), anti-AKT, anti-p-AKT (S473) (1:1000; Cell Signaling), anti-CREB, anti-p-CREB (S133) (1:1000; Millipore, Billerica, MA, USA), anti-BDNF, anti-BCL2 (1:500; Santa Cruz Biotechnology, Santa Cruz, CA, USA), anti-BAX (1:1000; Cell Signaling), anti-β-tubulin (1:500; Sigma-Aldrich), or anti-GAPDH (1:1000, MDBio, Taipei, Taiwan) antibody. The immune complexes were detected using goat anti-mouse or goat anti-rabbit IgG antibody conjugated with horseradish peroxidase (1:5000; GeneTex, Irvine, CA, USA) and chemiluminescent substrate (Millipore).

BDNF = assay: Western blot, BDNF; format: cell-based, Human; settings: 5 µM; for BDNF 14 kDa protein level relative to uninduced cells (100%): induced untreated 42%; for BDNF 32 kDa protein level relative to uninduced cells (100%): induced untreated 88%
Protocol: as §1

BAX = assay: Western blot, BAX; format: cell-based, Human; settings: 5 µM; induced untreated 182%
Protocol: as §1

BCL2 = assay: Western blot, BCL2; format: cell-based, Human; settings: 5 µM; induced untreated 72%
Protocol: as §1

Aβ42 peptide = target: T1, Aβ42 peptide (Homo sapiens, UniProt P05067); assay: Thioflavin T aggregation assay; format: biochemical
T1 construct: Aβ42 peptide (10 μM; Kelowna Int’l Scientific Inc., New Taipei City, Taiwan); purchased Kelowna Int’l Scientific Inc., New Taipei City, Taiwan
T1 sequence (P05067 672-713 limits assumed): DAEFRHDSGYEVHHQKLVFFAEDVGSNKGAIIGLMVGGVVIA
Protocol: To form Aβ aggregation, Aβ42 peptide (10 μM; Kelowna Int’l Scientific Inc., New Taipei City, Taiwan) was incubated with tested compounds (5–20 μM) in 150 mM NaCl and 20 mM Tris-HCl (pH8.0) at 37 °C for 48 h. Thioflavin T (10 μM; Sigma-Aldrich) was added to the Aβ mixture and incubated at room temperature for 5 min. The fluorescence intensity was recorded at 420 nm excitation and 485 nm emission by an FLx800 microplate reader (Bio-Tek, Winooski, VT, USA). Half maximal effective concentration (EC50) was estimated by a method of interpolation.

Aβ-GFP SH-SY5Y cells = assay: Aβ-GFP fluorescence (Aβ-GFP folding reporter); format: cell-based, Human; settings: 1–5 μM, normalized with cell number, day 8
Protocol: To induce neuronal differentiation, 2 × 10^4 Aβ-GFP SH-SY5Y cells were seeded on a 96-well plate with retinoic acid (10 µM; Sigma-Aldrich). Cells were pretreated with tested compounds (0.2–5 µM) on day 2 for 8 h and then with doxycycline (5 μg/mL) to induce Aβ-GFP expression. Medium containing retinoic acid compound and doxycycline was refreshed every 2 days for 6 days. Then, cells were stained with Hoechst 33342 (0.1 µg/mL; Sigma-Aldrich) at 37 °C for 30 min. Cell images were recorded at 482/35 nm excitation and 536/40 nm emission wavelengths (ImageXpres Micro Confocal High-Content Imaging System; Molecular Devices, Sunnyvale, CA, USA), and analyzed by MetaXpress (Molecular Devices).

[1] = 1,1-diphenyl-2-picrylhydrazyl radical scavenging; settings: data not shown
CREB = assay: Western blot, p-CREB; format: cell-based, Human; settings: 5 µM; induced untreated 81%
Protocol: as §1

Aβ-GFP RNA = assay: Real-time PCR of Aβ-GFP RNA; format: cell-based, Human; settings: 5 μM; untreated 28.6; not significantly affected
From the text: RNA was extracted using TRIzol reagent (Invitrogen, Carlsbad, CA, USA), followed by treatment with DNase I (Stratagene, La Jolla, CA, USA). cDNA was synthesized by SuperScript™ III reverse transcriptase (Invitrogen) according to manufacturer’s instruction and used to determine Aβ-GFP mRNA expression by StepOnePlus™ Real-time PCR system (Applied Biosystems, Foster City, CA, USA) using customized GFP primers (forward primer: 5′-[…]-3′, reverse primer: 5′-[…]-3′), FAM/NFQ probe (5′-[…]-3′), and TaqMan hypoxanthine phosphoribosyltransferase 1 (HPRT1) endogenous control (VIC/MGB probe, 4326321E) (Applied Biosystems). Fold change was calculated using the formula 2^ΔCt, ΔCT = CT (HPRT1)—CT (GFP), in which CT indicates the number of threshold cycles.

ERK = assay: Western blot, p-ERK; format: cell-based, Human; settings: 5 µM; induced untreated 79%
Protocol: as §1

## CCOC(=O)c1cc2c(O)cccc2oc1=O [ZN014, ethyl 5-hydroxy-2-oxo-2H-chromene-3-carboxylate]
AKT
  p-AKT (S473) protein level relative to uninduced cells (100%): 91–110%
BDNF
  BDNF 14 kDa protein level relative to uninduced cells (100%): 124–140%
  BDNF 32 kDa protein level relative to uninduced cells (100%): 113–119%
BAX
  BAX protein level relative to uninduced cells (100%): 126%
BCL2
  BCL2 protein level relative to uninduced cells (100%): 104–116%
Aβ42 peptide; compound 20 μM, thioflavin T assay
  Aβ aggregation inhibition (in words): did not inhibit Aβ aggregation
Aβ-GFP SH-SY5Y cells
  GFP fluorescence intensity relative to untreated cells (100%): 111–119%
[1]
  1,1-diphenyl-2-picrylhydrazyl radical scavenging activity: no 1,1-diphenyl-2-picrylhydrazyl radical scavenging activity
CREB
  p-CREB (S133) protein level relative to uninduced cells (100%): 98–101%
Aβ-GFP RNA
  Relative Aβ-GFP/HPRT1 RNA level: 29.2–30.0 folds of induction
ERK
  p-ERK (T202/Y204) protein level relative to uninduced cells (100%): 95–107%

## O=C(/C=C/c1ccccc1O)c1c(O)c2ccccc2oc1=O [ZN015, (E)-4-hydroxy-3-(3-(2-hydroxyphenyl)acryloyl)-2H-chromen-2-one]
AKT
  p-AKT (S473) protein level relative to uninduced cells (100%): 91–110%
BDNF
  BDNF 14 kDa protein level relative to uninduced cells (100%): 124–140%
  BDNF 32 kDa protein level relative to uninduced cells (100%): 113–119%
BAX
  BAX protein level relative to uninduced cells (100%): 126%
BCL2
  BCL2 protein level relative to uninduced cells (100%): 104–116%
Aβ42 peptide; compound 20 µM, Aβ42 10 μM, 37 °C 2 days, 621 AU without compound, 151 AU without incubation
  Thioflavin T fluorescence (Aβ aggregation): 403 AU
Aβ-GFP SH-SY5Y cells
  GFP fluorescence intensity relative to untreated cells (100%): 113–125%
[1]
  1,1-diphenyl-2-picrylhydrazyl radical scavenging activity: no 1,1-diphenyl-2-picrylhydrazyl radical scavenging activity
CREB
  p-CREB (S133) protein level relative to uninduced cells (100%): 98–101%
Aβ-GFP RNA
  Relative Aβ-GFP/HPRT1 RNA level: 29.2–30.0 folds of induction
ERK
  p-ERK (T202/Y204) protein level relative to uninduced cells (100%): 95–107%
